Experimental data from US6391296B1 (priority 1997, dated 2002).

Legend:
[1] = tested on: recombinant Bombyx mori nuclear polyhedrosis viruses rBNVγ; assay type: cell-based, Bombyx mori nuclear polyhedrosis virus; conditions: pH 3.5
[2] = tested on: Escherichia coli TI41; assay type: cell-based; conditions: Addition of 20 mg/l of thiaisoleucine, 30° C., 48 hours; no addition = 100
[3] = tested on: Escherichia coli JM101; assay type: cell-based; conditions: Addition of 20 mg/l of thiaisoleucine, 30° C., 48 hours; no addition = 100
[4] = tested on: Escherichia coli TI139; assay type: cell-based; conditions: Addition of 20 mg/l of thiaisoleucine, 30° C., 48 hours; no addition = 100

Compound	Amount of infectious viruses [1]	Relative degree of growth [2] [%]	Relative degree of growth [3] [%]	Relative degree of growth [4] [%]
CC(C)(C)CC(C)(C)c1ccc(OCCOCC[N+](C)(C)Cc2ccccc2)cc1 [benzethonium chloride]	Not detected	–	–	–
thiaisoleucine	–	95.2	17.1	106.1
